# Tests used:
# [1] = system: primary cells from a BTZ refractory MM patient; test: Primary cell viability, CellTiter-Glo, 72 h; settings: Homo sapiens
# Description: (§1) White blood cells (WBCs) were separated from red blood cells by the Ficoll density gradient. Multiple myeloma cells were then isolated from WBCs using human CD138 affinity magnetic beads (Miltenyi Biotec; cat#130-093-062; Gaithersburg, MD, USA) following the manufacturer’s protocol. Cells were cryopreserved in 10% DMSO in FBS. Revived cells were maintained in an RPMI medium with 10% FBS for 10 days prior to treatment. […] Cells were equilibrated to RT and CellTiter-Glo (Promega; Madison, WI, USA) solution (100 μL) was added and incubated with shaking for 10 min at RT. The assay plate was then allowed to equilibrate for 5 min at RT and luminescent readings were taken on a SpectraMax® M5. Data are presented as a percentage of the vehicle control for each experimental condition, after background subtraction. Error bars represent SD for triplicate wells.
# [2] = system: RPMI-8226 subcutaneous xenograft; test: RPMI-8226 xenograft tumor model; settings: after 42 days; TCH-165 100 mg/kg bid oral; bortezomib 0.375 reduced to 0.09 mg/kg i.v. 3X per week
# [3] = system: primary human MM cells of newly diagnosed patient; test: Primary cell viability, CellTiter-Glo, 72 h
# Description: as §1
structure (smiles),measurement,setting,value
"CC(C)C[C@H](NC(=O)[C@H](Cc1ccccc1)NC(=O)c1cnccn1)B(O)O [bortezomib, reference compound]",CC50,[1],> 1000 nM
same,average tumor volume,[2],771.41 (±129.35) mm^3
same,CC50,[3],4 nM

# From publication PMC9138505, “Small Molecule 20S Proteasome Enhancer Regulates MYC Protein Stability and Exhibits Antitumor Activity in Multiple Myeloma” (Biomedicines, 2022)
